In ChEMBL document CHEMBL1201862, “PubChem BioAssay data set” (2004):
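Five compound concentrations were applied to cells in 96-well plates for 48 hours; endpoints were derived by simple linear interpolation of the resulting dose-response curve. Here, GI50 denotes the concentration required for 50% inhibition of growth.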 Calls of active or inactive are those of the source. Cut-off read from the data, not from the text of the source: active = GI50 up to about 1.1 µM and inactive = higher.

What was measured:
Test in all cases: DTP human tumour cell line panel, 48 h
[1] = tested on: DLD-1
[2] = tested on: RXF 631
[3] = tested on: LXFL 529
[4] = tested on: KM-20L2
[5] = tested on: SNB-78
[6] = tested on: M19-MEL
[7] = tested on: XF498
[8] = tested on: DMS-114
[9] = tested on: HOP-18

Compound	GI50 [1]	GI50 [2]	GI50 [3]	GI50 [4]	GI50 [5]	GI50 [6]	GI50 [7]	GI50 [8]	GI50 [9]
CC(=O)N(O)Cc1ccccc1	> 100 µM (inactive)	> 100 µM (inactive)	> 100 µM (inactive)	> 100 µM (inactive)	> 100 µM (inactive)	> 100 µM (inactive)	> 100 µM (inactive)	> 100 µM (inactive)	
CCOC(=O)C(C)(C)Oc1ccc2c(=O)cc(-c3ccc(Cl)cc3)oc2c1	> 100 µM (inactive)	> 100 µM (inactive)	> 100 µM (inactive)	> 100 µM (inactive)		> 100 µM (inactive)	> 100 µM (inactive)	> 100 µM (inactive)	
COC(=O)C(Cc1nc2ccccc2nc1O)C(=O)C(=O)Nc1ccc([N+](=O)[O-])cc1[N+](=O)[O-] (stereo not drawn)	19.5 µM (inactive)	24.5 µM (inactive)	12.8 µM (inactive)	20.4 µM (inactive)	38.4 µM (inactive)	16.6 µM (inactive)	20.1 µM (inactive)	16.1 µM (inactive)	16.8 µM (inactive)
COc1ccc(OC(C(=O)O)c2ccccc2)c2c1CCCC2=O (stereo not drawn)	> 100 µM (inactive)	> 100 µM (inactive)	> 100 µM (inactive)	> 100 µM (inactive)	> 100 µM (inactive)	> 100 µM (inactive)	> 100 µM (inactive)	> 100 µM (inactive)	> 100 µM (inactive)
NCC(=O)OCN1C(=O)C2C3C=CC(C2C1=O)C1C2C(=O)N(COC(=O)CN)C(=O)C2C31 (stereo not drawn)	25.1 µM (inactive)		36.2 µM (inactive)	28.6 µM (inactive)	53.6 µM (inactive)	21 µM (inactive)	31.4 µM (inactive)	16.2 µM (inactive)	25.9 µM (inactive)
c1ccc(C2=NOC3COc4ccccc4OCC23)cc1 (stereo not drawn)			> 100 µM (inactive)	> 100 µM (inactive)	> 100 µM (inactive)			> 100 µM (inactive)	
CCc1oc2ccc(OC)c3c2c1C=CC=C3	> 100 µM (inactive)		> 100 µM (inactive)		> 100 µM (inactive)	> 100 µM (inactive)			
Cc1cccc2c1C/C(=C1\CCc3c(C)cccc31)C2=O	> 100 µM (inactive)	> 100 µM (inactive)	> 100 µM (inactive)	> 100 µM (inactive)		> 100 µM (inactive)		> 100 µM (inactive)	38.3 µM (inactive)
Cc1ccc(S(=O)(=O)N/N=C\c2c3ccccc3[n+]([O-])c3ccccc23)cc1	2.65 µM (inactive)	3.01 µM (inactive)	0.935 µM (active)	2.96 µM (inactive)	6.71 µM (inactive)	7.67 µM (inactive)		3.37 µM (inactive)	6.76 µM (inactive)
C=CCNC(=O)N(CCCCC(NC(C)=O)C(=O)NCc1ccccc1)Cc1ccccc1 (stereo not drawn)		> 100 µM (inactive)	> 100 µM (inactive)	> 100 µM (inactive)		> 100 µM (inactive)	> 100 µM (inactive)		> 100 µM (inactive)
Cn1c(-c2ccccc2)c/c(=N\NS(C)(=O)=O)c2cc(S(=O)(=O)O)ccc21	> 100 µM (inactive)		> 100 µM (inactive)	> 100 µM (inactive)	> 100 µM (inactive)	> 100 µM (inactive)	> 100 µM (inactive)	> 100 µM (inactive)	> 100 µM (inactive)
COc1ccc(NC(=O)C(C)Oc2ccc(OCC3CCCCC3)cc2)cc1 (stereo not drawn)	64 µM (inactive)		51.4 µM (inactive)		50.9 µM (inactive)	> 100 µM (inactive)	85.7 µM (inactive)	46.7 µM (inactive)	
CC1(C)CC(C)(C)CC(O)(C2(O)CC(C)(C)CC(C)(C)C2)C1			> 100 µM (inactive)	> 100 µM (inactive)		> 100 µM (inactive)	> 100 µM (inactive)	> 100 µM (inactive)	
c1ccc(CN(Cc2ccccn2)Cn2cccn2)nc1	30.2 µM (inactive)	38 µM (inactive)		51.5 µM (inactive)	> 100 µM (inactive)	35 µM (inactive)	60 µM (inactive)	22.1 µM (inactive)	
CCOC(=O)N1C/C(=C\c2ccc(N(C)C)cc2)C(=O)/C(=C/c2ccc(N(C)C)cc2)C1	> 100 µM (inactive)	> 100 µM (inactive)	> 100 µM (inactive)	> 100 µM (inactive)	> 100 µM (inactive)	> 100 µM (inactive)		> 100 µM (inactive)	> 100 µM (inactive)
O=C(CO)CC(=O)C(=O)Nc1nc([N+](=O)[O-])cs1	> 100 µM (inactive)	> 100 µM (inactive)	> 100 µM (inactive)	> 100 µM (inactive)	> 100 µM (inactive)	> 100 µM (inactive)		> 100 µM (inactive)	> 100 µM (inactive)
Cc1nc2c(n1Cc1ccc(F)cc1)C(=O)c1ccccc1C2=O			13.5 µM (inactive)	38.5 µM (inactive)	> 100 µM (inactive)	3.62 µM (inactive)	29.9 µM (inactive)		
CC1=C(c2cc(C(=O)Nc3cccc(C(F)(F)F)c3)ncn2)Sc2ccccc2N1	> 100 µM (inactive)		> 100 µM (inactive)	> 100 µM (inactive)		> 100 µM (inactive)	> 100 µM (inactive)	> 100 µM (inactive)	> 100 µM (inactive)
O=S(=O)(c1ccccc1)C(CN1CCCCC1)S(=O)(=O)c1ccccc1	> 100 µM (inactive)		> 100 µM (inactive)	> 100 µM (inactive)		> 100 µM (inactive)	> 100 µM (inactive)		
O=C(/C=C/c1ccccc1Cl)NC1C=Nc2ccc([N+](=O)[O-])cc2NC1 (stereo not drawn)	48.6 µM (inactive)		43.2 µM (inactive)	> 100 µM (inactive)	> 100 µM (inactive)	53.2 µM (inactive)	> 100 µM (inactive)	48.4 µM (inactive)	> 100 µM (inactive)
Cc1ccc(NC(=O)C(=O)C(C(=O)c2ccc3ccccc3c2)C2OC(=O)c3ccccc32)cc1C (stereo not drawn)	17.7 µM (inactive)		8.36 µM (inactive)	35.2 µM (inactive)		6.34 µM (inactive)	3.29 µM (inactive)	9.35 µM (inactive)	0.743 µM (active)
CN(C)c1ccc(/C=C(\NC(=O)c2ccccc2)c2nc3ccc4c(c3[nH]2)C(=O)c2ccccc2C4=O)cc1	9.48 µM (inactive)	34.7 µM (inactive)	39.6 µM (inactive)	> 100 µM (inactive)	75.7 µM (inactive)	> 100 µM (inactive)		21.7 µM (inactive)	
CC(=O)[O-].Cc1ncc(CO)c(/C=N/NC(N)=S)c1[O-].[Zn+2]	> 100 µM (inactive)	> 100 µM (inactive)	> 100 µM (inactive)		> 100 µM (inactive)	> 100 µM (inactive)		> 100 µM (inactive)	> 100 µM (inactive)
COc1cc(/C=C2/C(=O)N(C(=O)c3ccccc3O)N=C2C)cc(OC)c1OC	0.484 µM (active)		0.555 µM (active)	45.7 µM (inactive)	0.277 µM (active)	0.695 µM (active)	1.9 µM (inactive)	0.682 µM (active)	
COc1ccc(OC)c2[nH]c(Sc3c([N+](=O)[O-])ncn3C)nc12	20.6 µM (inactive)	18.5 µM (inactive)	13 µM (inactive)	20.4 µM (inactive)	20.9 µM (inactive)	20.6 µM (inactive)	17.3 µM (inactive)	17.4 µM (inactive)	
